# Laboratory results from patent US8242152B2, “Use of 4-[(4-thiazolyl)phenoxy]alkoxy-benzamidine derivatives for the prophylaxis and treatment of osteoporosis” (Dong Wha Pharmaceutical Co., Ltd., priority 2001, dated 2012).
# How the values were obtained:
# [1] = tested on: osteoclast fusion; assay: Fusion assay of prefusion osteoclasts (Example 2); type: cell-based, mice; conditions: Mus musculus, Osteoclast, 24 hrs; for inhibition at 0.08 µM / inhibition at 0.4 µM / inhibition at 2 µM / inhibition at 10 µM: read-out: Inhibitory action (%)
# From the text: This assay is designed to evaluate the influences of each test substance in terms of osteoclast fusion during the differentiation process in which immature prefusion osteoclasts (pOC; osteoclast structure with one more nuclei) were transformed into mature multinucleated osteoclast (OCL) via cell to cell fusion (Gregg Wesolowski et al. Experimental Cell Research 219,679-686, 1995).
# The prefusion osteoclast can be obtained via co-culture of both bone marrow cells and osteoblast, as prepared from Example 1. The mixture of both osteoblast (about 5×10^5 cells/plate) and bone marrow cells (about 1×10^7 cells/plate) were co-cultured in a 100 mm culture dish. Some differentiation factors, such as dexamethasone (10^−6M) and vitamin D3 (10^−9M), were added to the medium from the first day of culture. The medium was changed with a fresh medium containing differentiation factors every 2 days.
# Since a great number of the prefusion osteoclasts having one or more nuclei in fusion process were formed during 4-day co-culture, the cells were separated and co-cultivation after 4 days. The medium was removed from the cells and with the addition of 0.2% collagenase solution (4 mL), the cells were incubated at 37° C. for 20 mins to separate the attachment cells. Since the majority of separated cells were osteoblasts, all osteoblasts were washed with PBS solution two or three times for their complete removal.
# After the remaining prefusion osteoclasts were separated via reaction for 20 mins with the addition of echistatin containing 10% BSA, the cells were harvested by centrifuge.
# The test substances diluted at each concentration were diluted at the desired concentration in α-MEM medium (addition of 10% FBS) to load them into a 96-well microplate in a dose of 100 uL per well. The osteoclastic monocytes, so separated from the preceding No. 1, were plated on a 96-well microplate in a dose of 5×10^3 cell/100 uL per well and cultured at 37° C. for 24 hrs, thus successfully resulting in the osteoclast fusion. In the case of specimen-free and positive controls, experiments were performed in the same manner as above.
# The medium was removed from the cells and then the cells were washed once with PBS and fixed to a PBS solution containing 10% formalin for about 5 mins. The cells were again fixed to both ethanol and acetone (1/1) in a mixing solution for about 5 mins and dried off. The cells were further treated by TRAP staining solution for 15 mins and washed with water to observe the cells under the microscope. The TRAP-positive osteoclast counts, which were differentiated from monocyte to multinucleated cells (osteoclast having more than 10 nuclei) via fusion process, were measured.
# [2] = tested on: Primary osteoblastic cells; assay: ALP activity in primary osteoblastic cells (Example 5); type: cell-based, ICR mice; conditions: 3 days
# Method: Primary osteoblastic cells isolated from the calvariae of newborn ICR mice were grown to confluence in α-MEM containing 10% FBS. These cells were plated at a density of 1×10^5/ml in tissue culture dishes. After 24 h, cells were changed with a differentiation medium containing ascorbic acid (50 ug/ml) and β-glycerophosphate (10 mM) with or without the compounds and further cultured for 3 days. Cells were washed twice with PBS and harvested. For the measurement of ALP activity and total protein content, cells were extracted into 0.1% Triton X-100 in PBS containing 1 mM MgCl2 and centrifuged at 1.000×g for 5 minutes. Enzyme activity was determined in supernatants by colorimetric procedure using p-nitrophenyl phosphate (PNP) as a substrate at a wavelength of 405 nm and the protein content was determined by a Bio-Rad protein assay kit. The ALP unit was expressed as nmol PNP/ug protein/min.
# [3] = tested on: osteoclast fusion; assay: Osteoclast fusion assay with purified prefusion osteoclasts (Example 5); type: cell-based, mice; conditions: for inhibition at 0.08 µM / inhibition at 0.4 µM / inhibition at 2 µM / inhibition at 10 µM: read-out: Inhibitory action (%)
# Method: The effect of the compounds on the fusion of osteoclasts was examined using purified prefusion osteoclasts (pOC, mononuclear and binuclear osteoclasts). Co-cultures of bone marrow cells (2×10^7 cells/dish) and newborn mice calvariae (1×10^6 cells/dish) were maintained in 100-mm-diameter dishes for 4 days with osteoclast differontiarion factor. Cultures were washed twice with PBS and treated with 0.1% collagenase/dispase at 37° C. for 20 minutes. Released cells, mostly osteoblasts, were removed with a pipet and the plates were washed three times with PBS. The remaining cells were incubated with 30 uM echistatin in α-MEM containing 1% BSA for 20 min at 37° C. These cells were collected, pelleted, and washed once with α-MEM containing 10% FBS. The cells released by this treatment were the subject of the fusion assay. More than 90% of the cells in the pOCs preparation used in the present study were positive for TRAP.
# pOCs (15,000 cells/well) were plated on 96 well culture plates with or without various compounds. After culture for 18 hours, the cells were fixed and stained for TRAP.
# [4] = tested on: osteoclast differentiation; assay: Osteoclast differentiation, co-culture, TRAP(+)MNCs (Example 5); type: cell-based, mice; conditions: for inhibition at 0.01 µM / inhibition at 0.1 µM / inhibition at 1 µM: Mus musculus, Osteoclast, 144 h, day 6, read-out: % inhibitory action
# Method: To investigate the effect of compounds on osteoclast differentiation, co-culture between bone marrow cells (2.5×10^5 cells/cm^2) and calvaria-derived osteoblastic cells (4×10^4 cells/cm^2) was conducted in the presence of 1.25(OH)2D3(10^−8 M) and dexamethasone (10^−7 M) with α-MEM containing 10% FBS (referred as “osteoclastic medium”). Bone marrow cells were isolated from the femora of 6-week-old ddY mice and primary osteoblastic cells were isolated from the calvariae of newborn ICR mice by sequential digestion with 0.2% collagenase. The medium was changed every two days with fresh osteoclastic medium. An index of osteoclast formation was determined by counting TRAP-positive multinucleated osteoclasts (TRAP(+)MNCs). On day 6, the cells were fixed with 10% formaldehyde and stained for TRAP. The number of TRAP(+) MNCs containing more than 6-7 nuclei was counted under a microscope (ZEISS Axiovert 25, Switzerland). The results are shown as the relative inhibitory activity (% inhibition) compared to the control group.
# [5] = tested on: osteoclast activity (resorption pits); assay: Bone resorption pit formation assay on dentine slice (Example 5); type: cell-based, mice; conditions: for inhibition at 0.01 µM / inhibition at 0.1 µM / inhibition at 1 µM: Mus musculus, Osteoclast, dentine slice, 24 h, read-out: Inhibitory activity (%)
# Method: Method for evaluating the effects of the compounds on osteoclast activity: Multinucleated osteoclasts were developed on collagen gel plates by co-culture system as described. On day 6-8 of the co-culture, multinucleated OCLs were detached from plates by 0.2% collagenase treatment (“crude OCLs”). Crude OCLs suspended in α-MEM containing 10% FBS were placed on a dentine slice (4 mm diameter) in a 96-well culture plate. […] At the end of the incubation, cells were removed by 1 M NH4OH treatment and resorption pits formed (in the slices stained with Mayer's hematoxylin). Resorption pits were enumerated with an image analyzer and compared to the control group.
# [6] = Mus musculus, Osteoclast, 18 hours
SMILES,inhibition at 0.08 µM [1],inhibition at 0.4 µM [1],inhibition at 2 µM [1],inhibition at 10 µM [1],ALP activity (% of control) ([2]; 0.01 uM),ALP activity (Unit) ([2]; 0.01 uM),ALP activity (% of control) ([2]; 0.1 uM),ALP activity (Unit) ([2]; 0.1 uM),"inhibition at 0.08 µM [3, 6]","inhibition at 0.4 µM [3, 6]","inhibition at 2 µM [3, 6]","inhibition at 10 µM [3, 6]",inhibition at 0.01 µM [4],inhibition at 0.1 µM [4],inhibition at 1 µM [4],inhibition at 0.01 µM [5],inhibition at 0.1 µM [5],inhibition at 1 µM [5],also measured
"Cc1nc(-c2ccc(OCCCCCOc3ccc(C(=N)N)cc3)cc2)c(C(C)C)s1 [DW1352, 4-{5-[4-(5-isopropyl-2-methyl-1,3-thiazol-4-yl)phenoxy]pentoxy}-benzamidine]",5.13%,24.7%,87.2%,99%,113.0 % of control,19.2 nmol PNP/ug protein/min,111.7 % of control,19.1 nmol PNP/ug protein/min,5.13%,24.7%,87.2%,99%,27.1%,41.3%,80.9%,21.7%,36%,64.1%,"IC50 [1]: 740 nM; IC50 [3, 6]: 740 nM; times more inhibition of osteoclast fusion than DW1351 ([3]; versus DW1351): 2.3 times; times stronger inhibition of osteoclast differentiation than DW1351 ([4]; versus DW1351, Table 8): about 1.35 times; times more inhibition of osteoclast activity than DW1351 ([5]; versus DW1351, Table 10): about 1.35 times"
"COc1cc(C(=O)N(C(C)C)C(C)C)ccc1OCCCCOc1ccc2c(N)noc2c1 [HS1141, N,N-diisopropyl-4-[4-(3-aminobenzo[d]isooxazole-6-yloxy)butoxy]-3-methoxybenzamide]",2.1%,12.3%,15.7%,36.3%,117.3 % of control,19.9 nmol PNP/ug protein/min,120.9 % of control,21.0 nmol PNP/ug protein/min,2.1%,12.3%,15.7%,36.3%,11.4%,36.4%,72.9%,8.2%,22.7%,52.7%,
